Data: PubChem BioAssay AID588381 (NMMLSC, 2011)
Activity calls are given as the source filed them.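 How the source made its calls: active means half-maximal concentration at most 10 µM from a sound curve fit, with response shifting 30% or more across doses; inactive means the rest.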

Target: GTPase HRas (Homo sapiens) (UniProt P01112)
Test: activated H-Ras mutant GTP-binding inhibitors, SAR follow-up, selectivity assay for Cdc42 probe extension project, biochemical, multiplex bead flow cytometry, round 1 (AID 588381)
Settings: GST-H-Ras act beads, Bodipy-FL-GTP binding; for response, lower = inhibition: at 100 µM (top of the series)

Sequence of GTPase HRas (Homo sapiens) (P01112 whole entry, looked up): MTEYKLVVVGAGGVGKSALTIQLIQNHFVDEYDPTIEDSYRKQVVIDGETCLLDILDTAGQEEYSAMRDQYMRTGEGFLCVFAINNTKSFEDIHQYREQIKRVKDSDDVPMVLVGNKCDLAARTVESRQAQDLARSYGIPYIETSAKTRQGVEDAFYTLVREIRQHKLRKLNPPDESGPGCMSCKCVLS

response, lower = inhibition | EC50 | Compound
inactive | – | O=C(C#Cc1ccccc1)c1cccc([N+](=O)[O-])c1
inactive | – | NS(=O)(=O)c1ccc(N2N=C(c3ccccc3)CC2c2ccccc2)cc1 (centres undefined)
inactive | – | COc1ccc(C2CC(c3ccccc3)=NN2c2ccc(S(N)(=O)=O)cc2)cc1 (centres undefined)
– | 82 nM | CC1(C)Cc2c(sc(NC(=S)NC(=O)c3ccccc3)c2C(=O)O)CO1
